Experimental data taken from US20050095663A1, “Process for screening fungitoxic compounds” (priority 2002, published 2005).

Tests used:
[1] = test system: Candida albicans (American Type Culture Collection strain 10231); assay: Control of Candida albicans infection in mice; type: in vivo; details: for % Survival: mortality over 10 days
Procedure: Compound 1 (6-(4-chlorophenyl)-2-(2′-pentynyl)pyridazinone, described as compound 109 in European Patent Publication No. EP 478 195 A1) in 5% dimethylsulfoxide (DMSO) in saline solution was administered intraperitoneally 1 h before and at 4, 24, 48 and 72 h after intravenous inoculation with Candida albicans (American Type Culture Collection strain 10231). Ten mice were used for each treatment. Mortality was recorded over a period of 10 days.

[2] = test system: S. cerevisiae; assay: Growth inhibition of S. cerevisiae by compound 1; type: cell-based; details: Saccharomyces cerevisiae, 18 h
Procedure: Fifty ml of YPG culture medium (10 g yeast extract, 20 g peptone, and 20 g glucose per liter of water) in a 250 ml Erlenmeyer flask was inoculated with Saccharomyces cereviae (strain X2180-1A) to give an absorbance at 700 nm of 0.02. This culture was incubated for 18 h at 30° C. with shaking at 225 rpm. The cells were harvested by centrifugation, washed once with SD medium (6.7 g Bacto-yeast nitrogen base and 20 g glucose per liter of water), and suspended in SD medium to give an Absorbance at 700 nm of 0.04. Aliquots (5 ml) of cell suspension were distributed in 20 ml capacity glass vials. Treatments containing compound 1 or cerulenin received 25 μl of a solution of compound in dimethylsulfoxide (DMSO) at 240 ppm or 160 ppm, respectively. Control treatments without compound 1 or cerulenin received 25 ul DMSO. Treatments containing a fatty acid received 25 μl of a 2 mM solution of the fatty acid in a 1% solution of Triton X-100 providing a concentration of 10 μM. Treatments without fatty acid received 25 ul of 1% Triton X-100. All treatments were carried out in duplicate. Vials were incubated for 22 h at 30° C. with shaking at 225 rpm. Growth of the cells was then estimated by diluting the cells in each treatment 3-fold with SD medium and measuring the asorbance at 700 nm. The results in Table 3 show inhibition of growth expressed as a percentage of growth in DMSO controls containing Triton X-100 but lacking Compound 1, cerulenin or fatty acid.
(§1) S. cerevisiae was grown in SD medium as 5 ml aliquots of cell suspension in 20 ml capacity glass vials as described in example 3 in the absence (controls) and presence of compound 1. Compound 1 was added as 25 μl of solution in DMSO, and controls received 25 ul DMSO alone. After growth for 18 h at 30° C. with shaking at 225 rpm, inhibition of growth by compound 1 was determined as described in example 3, and the fatty acid composition was determined as follows. The cells were centrifuged in 20 ml borosilicate glass culture tubes at 2000 rpm. The supernatant was decanted, and the cells were re-suspended in 10 ml of water and re-centrifuged at 2000 rpm. The supernatant was decanted, and the cells were saponified by heating at 80° C. for 1 hour in 2.5 ml of 10% potassium hydroxide solution in 90% methanol/10% water. The non-saponifiable lipids were removed by extracting the basic solution with 2×3 ml of cyclohexane. The basic solution was then acidified to pH 2 with 6N hydrochloric acid, and the acidic solution was again extracted with 2×3 ml of cyclohexane. These extracts were analyzed directly by capillary gas chromatography using an HP5890 gas chromatograph equipped with a Restek Stabilwax DB capillary column (30m×0.53 mm i.d.×0.25 μm film thickness) and a flame ionization detector. Analyses were run at 225° C. isothermally, and compared to a sample free fatty acid mixture prepared from authentic standards purchased from Sigma.

[3] = test system: S. cerevisiae; assay: Fatty acid composition of S. cerevisiae after treatment (capillary gas chromatography); type: cell-based, Saccharomyces cerevisiae; details: 18 h
Procedure: as §1

CCC#CCn1nc(-c2ccc(Cl)cc2)ccc1=O [Compound 1, 6-(4-chlorophenyl)-2-(2′-pentynyl)pyridazinone]
Inhibition of Candida albicans infection in mice (in words) [1]: effective inhibitor
% Survival ([1]; 10 mg/kg): 20%
% Survival ([1]; 30 mg/kg intraperitoneally 1 h before and 4, 24, 48, 72 h after i.v. inoculation): 40%
% Survival ([1]; 100 mg/kg intraperitoneally 1 h before and 4, 24, 48, 72 h after i.v. inoculation): 50%
inhibition at 0.0625 µg/mL ([2]; 0.0625 μg/ml): 10.1%
inhibition at 0.125 µg/mL ([2]; 0.125 μg/ml): 14.3%
inhibition at 0.25 µg/mL ([2]; 0.25 μg/ml): 19.1%
inhibition at 0.5 µg/mL ([2]; 0.5 μg/ml): 38.7%
inhibition at 1 µg/mL ([2]; 1 μg/ml): 54.4%
inhibition at 2 µg/mL ([2]; 2 μg/ml): 66.4%
oleic acid per milligram dry weight of cells ([3]; 0.0625 μg/ml): 8.5 µg/mg
palmitic acid per milligram dry weight of cells ([3]; 0.0625 μg/ml): 7.1 µg/mg
palmitoleic acid per milligram dry weight of cells ([3]; 0.0625 μg/ml): 14.2 µg/mg
stearic acid per milligram dry weight of cells ([3]; 0.0625 μg/ml): 2.8 µg/mg
oleic acid per milligram dry weight of cells ([3]; 0.125 μg/ml): 4.3 µg/mg
palmitic acid per milligram dry weight of cells ([3]; 0.125 μg/ml): 6.5 µg/mg
palmitoleic acid per milligram dry weight of cells ([3]; 0.125 μg/ml): 14 µg/mg
stearic acid per milligram dry weight of cells ([3]; 0.125 μg/ml): 3.1 µg/mg
oleic acid per milligram dry weight of cells ([3]; 0.25 μg/ml): 2.7 µg/mg
palmitic acid per milligram dry weight of cells ([3]; 0.25 μg/ml): 6 µg/mg
palmitoleic acid per milligram dry weight of cells ([3]; 0.25 μg/ml): 3 µg/mg
stearic acid per milligram dry weight of cells ([3]; 0.25 μg/ml): 3 µg/mg
oleic acid per milligram dry weight of cells ([3]; 0.5 μg/ml): 1.1 µg/mg
palmitic acid per milligram dry weight of cells ([3]; 0.5 μg/ml): 5.2 µg/mg
palmitoleic acid per milligram dry weight of cells ([3]; 0.5 μg/ml): 1 µg/mg
stearic acid per milligram dry weight of cells ([3]; 0.5 μg/ml): 4.7 µg/mg
oleic acid per milligram dry weight of cells ([3]; 1 μg/ml): 1.2 µg/mg
palmitic acid per milligram dry weight of cells ([3]; 1 μg/ml): 6.7 µg/mg
palmitoleic acid per milligram dry weight of cells ([3]; 1 μg/ml): 0 µg/mg
stearic acid per milligram dry weight of cells ([3]; 1 μg/ml): 5 µg/mg
oleic acid per milligram dry weight of cells ([3]; 2 μg/ml): 0.5 µg/mg
palmitic acid per milligram dry weight of cells ([3]; 2 μg/ml): 5 µg/mg
palmitoleic acid per milligram dry weight of cells ([3]; 2 μg/ml): 0 µg/mg
stearic acid per milligram dry weight of cells ([3]; 2 μg/ml): 4.2 µg/mg
